Assay results as given in patent US20100041089A1, “IMPROVED METHOD FOR DETECTING CHEMICAL […]” (priority 2006, published 2010).

System: yeast genes (expressed mRNA)
Experiment: DNA chip measurement of expressed mRNA of yeast genes after culture with a toxic chemical substance
Assay type: cell-based, Saccharomyces cerevisiae S288C
Method in brief: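 Fluorescence ratio, treated over untreated, read by chip scanner; ratio of two or more counted significant. Cells: S288C yeast, YPD, 25° C, chemical added at log phase for 2 h at growth-inhibiting, sublethal level. Cy3/Cy5-labeled cDNA from oligo-dT-purified mRNA.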

S=C([S-])NCCNC(=S)[S-].[Zn+2] [(11), Zinc N,N′-ethylenebis(dithiocarbamate)]
The level of expressed mRNA in the presence of chemical substance/The level of expressed mRNA in the absence of chemical substance (yeast gene YNL115C, cultured two hours with substance): 1.1
The level of expressed mRNA in the presence of chemical substance/The level of expressed mRNA in the absence of chemical substance (yeast gene YNL134C, cultured two hours with substance): 5.0
The level of expressed mRNA in the presence of chemical substance/The level of expressed mRNA in the absence of chemical substance (yeast gene YNL156C, cultured two hours with substance): 1.4
The level of expressed mRNA in the presence of chemical substance/The level of expressed mRNA in the absence of chemical substance (yeast gene YNL190W, cultured two hours with substance): 1.0
level of expressed mRNA in the presence of chemical substance / level in the absence of chemical substance (yeast gene YNL194C, cultured two hours with the chemical substance): 17.1
The level of expressed mRNA in the presence of chemical substance/The level of expressed mRNA in the absence of chemical substance (yeast gene YNL195C, cultured two hours with the chemical substance): 2.9
The level of expressed mRNA in the presence of chemical substance/The level of expressed mRNA in the absence of chemical substance (yeast gene YNL208W, cultured two hours with substance): 2.5
The level of expressed mRNA in the presence of chemical substance/The level of expressed mRNA in the absence of chemical substance (yeast gene YNL234W, cultured two hours with substance): 1.3
The level of expressed mRNA in the presence of chemical substance/The level of expressed mRNA in the absence of chemical substance (yeast gene YNL241C, cultured for two hours with substance): 3.0
The level of expressed mRNA in the presence of chemical substance/The level of expressed mRNA in the absence of chemical substance (yeast gene YNL281W, cultured two hours with substance): 1.6
The level of expressed mRNA in the presence of chemical substance/The level of expressed mRNA in the absence of chemical substance (yeast gene YNL300W, cultured two hours with substance): 0.9
The level of expressed mRNA in the presence of chemical substance/The level of expressed mRNA in the absence of chemical substance (yeast gene YNL305C, cultured two hours with substance): 1.8
The level of expressed mRNA in the presence of chemical substance/The level of expressed mRNA in the absence of chemical substance (yeast gene YNR064C, cultured two hours with substance): 0.7
The level of expressed mRNA in the presence of chemical substance/The level of expressed mRNA in the absence of chemical substance (yeast gene YNR068C, cultured two hours with substance): 1.1
The level of expressed mRNA in the presence of chemical substance/The level of expressed mRNA in the absence of chemical substance (yeast gene YOL032W, cultured two hours with substance): 1.4
The level of expressed mRNA in the presence of chemical substance/The level of expressed mRNA in the absence of chemical substance (yeast gene YOL036W, cultured two hours with substance): 2.2
The level of expressed mRNA in the presence of chemical substance/The level of expressed mRNA in the absence of chemical substance (yeast gene YOL047C, cultured two hours with substance): 0.9
The level of expressed mRNA in the presence of chemical substance/The level of expressed mRNA in the absence of chemical substance (yeast gene YOL071W, cultured two hours with substance): 4.3
The level of expressed mRNA in the presence of chemical substance/The level of expressed mRNA in the absence of chemical substance (yeast gene YOL082W, cultured two hours with substance): 1.6
The level of expressed mRNA in the presence of chemical substance/The level of expressed mRNA in the absence of chemical substance (yeast gene YOL083W, cultured two hours with substance): 1.3
The level of expressed mRNA in the presence of chemical substance/The level of expressed mRNA in the absence of chemical substance (yeast gene YOL117W, cultured two hours with substance): 1.0
The level of expressed mRNA in the presence of chemical substance/The level of expressed mRNA in the absence of chemical substance (yeast gene YOL131W, cultured two hours with substance): 1.4
The level of expressed mRNA in the presence of chemical substance/The level of expressed mRNA in the absence of chemical substance (yeast gene YOL150C, cultured two hours with substance): 9.4
The level of expressed mRNA in the presence of chemical substance/The level of expressed mRNA in the absence of chemical substance (yeast gene YOL152W): 5.9
The level of expressed mRNA in the presence of chemical substance/The level of expressed mRNA in the absence of chemical substance (yeast gene YOL162W, cultured two hours with substance): 4.3
The level of expressed mRNA in the presence of chemical substance/The level of expressed mRNA in the absence of chemical substance (yeast gene YOR019W, cultured two hours with substance): 1.7
The level of expressed mRNA in the presence of chemical substance/The level of expressed mRNA in the absence of chemical substance (yeast gene YOR178C, cultured two hours with the chemical substance): 4.1
The level of expressed mRNA in the presence of chemical substance/The level of expressed mRNA in the absence of chemical substance (yeast gene YOR197W, cultured two hours with substance): 1.0
The level of expressed mRNA in the presence of chemical substance/The level of expressed mRNA in the absence of chemical substance (yeast gene YOR215C, cultured two hours with substance): 1.6
The level of expressed mRNA in the presence of chemical substance/The level of expressed mRNA in the absence of chemical substance (yeast gene YOR225W, cultured two hours with substance): 1.2
The level of expressed mRNA in the presence of chemical substance/The level of expressed mRNA in the absence of chemical substance (yeast gene YOR248W, cultured two hours with substance): 2.3
The level of expressed mRNA in the presence of chemical substance/The level of expressed mRNA in the absence of chemical substance (yeast gene YOR382W, cultured two hours with substance): 2.5
The level of expressed mRNA in the presence of chemical substance/The level of expressed mRNA in the absence of chemical substance (yeast gene YPL052W, cultured two hours with substance): 1.2
The level of expressed mRNA in the presence of chemical substance/The level of expressed mRNA in the absence of chemical substance (yeast gene YPL087W, cultured two hours with substance): 2.5
The level of expressed mRNA in the presence of chemical substance/The level of expressed mRNA in the absence of chemical substance (yeast gene YPL171C, cultured for two hours with substance): 37.0
The level of expressed mRNA in the presence of chemical substance/The level of expressed mRNA in the absence of chemical substance (yeast gene YPL196W, cultured two hours with substance): 1.7
The level of expressed mRNA in the presence of chemical substance/The level of expressed mRNA in the absence of chemical substance (yeast gene YPL206C, cultured two hours with substance): 1.5
The level of expressed mRNA in the presence of chemical substance/The level of expressed mRNA in the absence of chemical substance (yeast gene YPL222W, cultured two hours with substance): 1.2
The level of expressed mRNA in the presence of chemical substance/The level of expressed mRNA in the absence of chemical substance (yeast gene YPR023C, cultured two hours with substance): 1.7
The level of expressed mRNA in the presence of chemical substance/The level of expressed mRNA in the absence of chemical substance (yeast gene YPR079W, cultured two hours with substance): 0.8
The level of expressed mRNA in the presence of chemical substance/The level of expressed mRNA in the absence of chemical substance (yeast gene YPR151C, cultured two hours with substance): 1.4
